Source: US5506204A, “Muramyl compounds for treatment of septic shock” (Peptech (UK) Limited, priority 1991, dated 1996)
Like-named read-outs stand apart in the source and are kept apart here.

System: neutrophils
Method: Neutrophils were isolated from peripheral blood. 3.5 ml of heparinised blood was spread over M-PRM medium (Flow Laboratories) and centrifuged for 40 minutes at 400g at 20° C. […] The cells were adjusted to a concentration of 2×10^6 ml.
Acid phosphatase: 50 μl of substrate mixture, consisting of 0.24% paranitrophenyl phosphate (Boehring) and 0.84% NaCl in a sodium citrate buffer (pH 5.5) were added to cells and incubated for 30 minutes at 30° C. before the reaction was by adding 100 μl of 0.2M NaOH. The optical density at 405 mu was measured with a Multiscan Titertek Plus (Flow Laboratories).
For chemiluminescence, superoxide anion production, myeloperoxidase and acid phosphatase both the spontaneous and induced reactions were measured. Induction was performed by exposing the cells to opsonized zymosan (30 μl, 20 mg/ml) for 30 minutes at 37° C. before the assay.
In the treated group GMDP was given per os on days -2 and -1 before the operation, and subcutaneously on days +1, +2 and +3 after the operation at a dose of 1-2 mg/day. The total dose of GMDP was […]. On day +5 after the operation neutrophil function was again assessed in all patients by the same parameters as specified above.

With CC(=O)NC1C(OC2C(CO)OC(O)C(NC(C)=O)C2OC(C)C(=O)NC(C)C(=O)NC(CCC(=O)O)C(N)=O)OC(CO)C(O)C1O [GMDP, N-acetyl-D-glucosaminyl-(β1-4)-N-acetylmuramyl-L-alanyl-D-isoglutamine] the “Acid phosphatase, spontaneous” value (Day +5) was 114.9 ± 2.4 O.D. 405μ, the “Acid phosphatase, spontaneous” value (Day -3 (before treatment)) was 133.8 ± 75 O.D. 405μ and the “Acid phosphatase, spontaneous % Change” value (Day -3 to Day +5) was -14.1%. For the same compound, the “Acid phosphatase, induced” value (opsonized zymosan, Day +5) was 120.8 ± 3.2 O.D. 405μ, the “Acid phosphatase, induced” value (opsonized zymosan, Day -3 (before treatment)) was 172.3 ± 18.8 O.D. 405μ and the “Acid phosphatase, induced % Change” value (opsonized zymosan, Day -3 to Day +5) was -29.94%.
